The test system of the assay is C57Bl/6J mice. In words: In vivo liver uptake of [3H]-labelled mouse HDL and LDL. As to conditions: intravenous 10 nmole/kg. The protocol:
FIG. 16A-J: Increase of bile secretion following activation of P2Y13r pathway in mice. C57Bl/6J mice (n=10) were fasted for 2 h and then intravenously injected with Cangrelor® or Compound IIa (10 nmoles/kg). Four hours later the gallbladders were removed and analyzed for: Bile acids content (FIG. 16A); Bile cholesterol content (FIG. 16B). C57Bl/6J mice (n=10) were fasted for 2 h followed by single oral dose of P2Y13r agonist Compound IIa at 3, 30 or 300 μg/kg. Six hours later bile acids contents (FIG. 16C); bile cholesterol content (FIG. 16D), and bile acid content of liver (FIG. 16E) were evaluated using HPLC and enzymatic kits for gallbladers. Plasma samples were collected at time 0 and after 6 h of treatment, then analyzed for: total cholesterol (▴), unesterified cholesterol (●), esterified cholesterol (▪) and HDL cholesterol (▾) determined using either enzymatic kits or Lipoprint® for HDL cholesterol (FIG. 16F). […] Radioactivity present in the liver was determined 2 hours later for the HDL or 5 hours later for the LDL. Cholesterol content of feces from treated animals (100 μg/kg) was determined by Charge aerosol detection (FIG. 16J). *p<0.05, **p<0.01. […]

`CN(C)c1ncc(CN2CCC(c3cc(O)nc(N4CCOCC4)n3)CC2)cn1` [Compound IIa, 6-[1-(2-Dimethylaminopyrimidin-5-ylmethyl)-piperidin-4-yl]-2-morpholin-4-yl-pyrimidin-4-ol]: the “liver uptake of labelled HDL as compared to LDL” value is “specific stimulation”.

For the origin of these results see patent US10220040B2, “Compounds, compositions and methods useful for cholesterol mobilization” (Cerenis Therapeutics Holding SA, priority 2010, dated 2019).
